Experimental data: article PMC10934261, “Designing Potent Anti-Cancer Agents: Synthesis and Molecular Docking Studies of Thieno[2,3-d][1,2,4]triazolo[1,5-a]pyrimidine Derivatives” (Molecules, 2024)

Columns and labels:
[1] = test system: human breast MCF-7 cancer cell line; experiment: In vitro cytotoxic screening (MTT assay), MCF-7; assay type: cell-based; settings: for Percentage cytotoxicity on MCF-7: average ± standard deviation; for IC50: Homo sapiens, MCF7, MCF-7, 48 h incubation, mean of three values, read-out: IC50 (Mean ± SD) MCF-7
Protocol: (§1) Using human breast MCF-7, colorectal HCT-116, and prostate PC-3 cancer cell lines, preliminary antiproliferative effectiveness of cyclopenta[4,5]thieno[2,3-d][1,2,4]triazolo[1,5-a]pyrimidin-9(6H)-ones 4–16 was established in vitro through MTT assay at different concentrations (100, 50, 25 and 12.5 μM) (Figure 2).
(§2) The cell lines were obtained from Karolinska Center, Department of Oncology and Pathology, Karolinska Institute and Hospital, Stockholm, Sweden. as follows: human breast MCF-7, colorectal HCT-116 and prostate PC-3 cancer cell lines and human skin normal BJ-1 cell line. Exponentially, cells were cultured at a concentration of 10^4 cells/well for 24 h, afterwards fresh medium containing different concentrations of the tested samples was added. Serial two-fold dilution of the tested samples were added using a multichannel pipette. Moreover, all cells were cultivated at 37 °C, 5% CO2 and 95% humidity. Also, incubation of control cells occurred at 37 °C. However, after incubation for 24 h different concentrations of samples (100, 50, 25 and 12.5 µM) were added and the incubation was continued for 48 h, then crystal violet solution 1% was added to each well for 0.5 h to examine the presence of viable cells. After rinsing the wells using water until stain free, 30% glacial acetic acid was added to all wells with shaking the plates on a Microplate reader (TECAN, Inc.) to measure the absorbance at a wavelength of 490 nm. The cytotoxicity was estimated by IC50 in μM, which is the concentration that inhibits 50% of growth of cancer cells. […]
(§3) 1.1. In vitro cytotoxic screening
(§4) The cell lines were obtained from Karolinska Center, Department of Oncology and Pathology, Karolinska Institute and Hospital, Stockholm, Sweden. as follows: human breast MCF-7, colorectal HCT-116 and prostate PC-3 cancer cell lines and human skin normal BJ-1 cell line. Exponentially, cells were placed in 10^4 cells/ well for 24 h, and then add fresh medium which containing different concentration of the tested sample. Serial two-fold dilution of the tested sample were added using a multichannel pipette. Moreover, all cells were cultivated at 37 °C, 5% CO2 and 95% humidity. Also, incubation of control cells occurred at 37 °C. However, after incubation for 24 h different concentrations of sample (100, 50, 25 and 12.5 µM) were added and continued the incubation for 48 h, then, add the crystal violet solution 1% to each well for 0.5 h to examine viable cells. Rinse the wells using water until no stain. After that, add 30% glacial acetic acid to all wells with shaking plates on Microplate reader (TECAN, Inc.) to measure the absorbance, using a test wavelength of 490 nm. Besides, compare the treated samples with the control cell. The cytotoxicity was estimated by IC50 in (μ M), the concentration that inhibits 50% of growth of cancer cell. […]
(§5) The molecular docking simulation of the promising in vitro screened cyclopenta[4,5]thieno[2,3-d][1,2,4]triazolo[1,5-a]pyrimidin-9(6H)-ones 10b and 10e against EGFR and PI3K was done using the Molecular Operating Environment software (MOE-Dock) version 2014.0901. The co-crystallized structures of EGFR and PI3K kinases complexed with their native ligands, erlotinib and quinolone LXX, were downloaded from the protein data bank (PDB codes: 1M17 and 3L54, respectively). All minimizations were performed using MOE until an RMSD gradient of 0.05 kcal∙mol−1Å−1 with MMFF94x force field and the partial charges were automatically calculated. Preparation of the enzyme structures was done for molecular docking using Protonate 3D protocol with the default options in MOE. London dG scoring function and Triangle Matcher placement method were used in the docking protocol. Initially, the original ligands were re-docked into the active binding site of EGFR and PI3K kinases to assess the root-mean-square deviation values. Then, the docking studies of the newly targeted […]

[2] = test system: human colorectal HCT-116 cancer cell line; experiment: In vitro cytotoxic screening (MTT assay), HCT-116; assay type: cell-based; settings: average ± standard deviation
Protocol: as §1, §2, §3, §4, §5

[3] = test system: human prostate PC-3 cancer cell line; experiment: In vitro cytotoxic screening (MTT assay), PC-3; assay type: cell-based; settings: average ± standard deviation
Protocol: as §1, §2, §3, §4, §5

Row | Compound | Percentage cytotoxicity on MCF-7 ([1]; 12.5 µM) | Percentage cytotoxicity on MCF-7 ([1]; 25 µM) | Percentage cytotoxicity on MCF-7 ([1]; 50 µM) | Percentage cytotoxicity on MCF-7 ([1]; 100 µM) | Percentage cytotoxicity on HCT-116 ([2]; 12.5 µM) | Percentage cytotoxicity on HCT-116 ([2]; 25 µM) | Percentage cytotoxicity on HCT-116 ([2]; 50 µM) | Percentage cytotoxicity on HCT-116 ([2]; 100 µM) | Percentage cytotoxicity on PC-3 ([3]; 12.5 µM) | Percentage cytotoxicity on PC-3 ([3]; 25 µM) | Percentage cytotoxicity on PC-3 ([3]; 50 µM) | Percentage cytotoxicity on PC-3 ([3]; 100 µM) | melting point | IC50 [1]
1 | O=c1c2c3c(sc2nc2[nH]cnn12)CCC3 [Compound 4, 7,8-Dihydro-3H-cyclopenta[4,5]thieno[2,3-d][1,2,4]triazolo[1,5-a]pyrimidin-9(6H)-one] | 31.5±5.7% | 23.6±3.2% | 35.5±4.4% | 34.8±4.1% | 0.0±0.005% | 0.0±0.005% | 0.0±0.005% | 9.1±2.0% | 0.0±0.005% | 0.0±0.005% | 0.0±0.005% | 11.3±3.7% | > 300 °C | 
2 | Cc1nn2c(=O)c3c4c(sc3nc2[nH]1)CCC4 [Compound 5, 2-Methyl-7,8-dihydro-3H-cyclopenta[4,5]thieno[2,3-d][1,2,4]triazolo[1,5-a]pyrimidin-9(6H)-one] | 0.0±0.005% | 0.0±0.005% | 0.0±0.005% | 18.9±10% | 0.0±0.005% | 0.0±0.005% | 0.0±0.005% | 0.0±0.005% | 0.0±0.005% | 0.0±0.005% | 0.0±0.005% | 0.0±0.005% | 93 to 95 °C | 
3 | CCOC(=O)Cc1nn2c(=O)c3c4c(sc3nc2[nH]1)CCC4 [Compound 6, Ethyl 2-(9-oxo-6,7,8,9-tetrahydro-3H-cyclopenta[4,5]thieno[2,3-d][1,2,4]triazolo[1,5-a]-pyrimidin-2-yl)acetate] | 0.0±0.005% | 0.0±0.005% | 0.0±0.005% | 24±2.5% | 0.0±0.005% | 0.0±0.005% | 0.0±0.005% | 0.0±0.005% | 0.0±0.005% | 0.0±0.005% | 0.0±0.005% | 15.1±4.1% | > 300 °C | 
4 | N#CCc1nn2c(=O)c3c4c(sc3nc2[nH]1)CCC4 [Compound 7, 2-(9-Oxo-6,7,8,9-tetrahydro-3H-cyclopenta[4,5]thieno[2,3-d][1,2,4]triazolo[1,5-a]pyrimidin-2-yl)acetonitrile] |  |  |  |  |  |  |  |  |  |  |  |  | > 300 °C | 
5 | CC(=O)C/C(C)=N/n1c(N)nc2sc3c(c2c1=O)CCC3 [Compound 8, (E)-2-Amino-3-((4-oxopentan-2-ylidene)amino)-3,5,6,7-tetrahydro-4H-cyclopenta[4,5]thieno[2,3-d]pyrimidin-4-one] | 30.1±4.1% | 31.9±3.1% | 40.9±7.8% | 45.7±5.9% | 0.0±0.005% | 0.0±0.005% | 0.0±0.005% | 0.0±0.005% | 0.0±0.005% | 0.0±0.005% | 0.0±0.005% | 0.0±0.005% | > 300 °C | 
6 | O=c1c2c3c(sc2nc2[nH]c(=S)[nH]n12)CCC3 [Compound 9, 2-Thioxo-2,3,7,8-tetrahydro-1H-cyclopenta[4,5]thieno[2,3-d][1,2,4]triazolo[1,5-a]pyrimidin-9(6H)-one] | 0.0±0.005% | 28.4±2.6% | 32.7±2.4% | 62.5±7.6% | 0.0±0.005% | 0.0±0.005% | 0.0±0.005% | 0.0±0.005% | 3.7±1.3% | 6.3±0.9% | 7.8±1.3% | 19.3±3.5% | > 300 °C | 71.8 ± 1.05 µM
7 | O=c1c2c3c(sc2nc2[nH]c(-c4ccc(Cl)cc4)nn12)CCC3 [Compound 10a, 2-(4-Chlorophenyl)-7,8-dihydro-3H-cyclopenta[4,5]thieno[2,3-d][1,2,4]triazolo[1,5-a]pyrimidin-9(6H)-one] | 16.5±9.5% | 33.3±0.8% | 44.4±11.2% | 61.4±4.7% | 14.4±2.3% | 17.8±1.7% | 17.9±1.7% | 20.3±2.1% | 20.7±3.9% | 30.7±0.5% | 35.9±0.8% | 40.9±4.1% | 220 to 222 °C | 60.6 ± 0.45 µM
8 | O=c1c2c3c(sc2nc2[nH]c(-c4ccc([N+](=O)[O-])cc4)nn12)CCC3 [Compound 10c, 2-(4-Nitrophenyl)-3,6,7,8-tetrahydro-9H-cyclopenta[4,5]thieno[2,3-d][1,2,4]triazolo[1,5-a]pyrimidin-9-one] | 8.18±1.01% | 24.04±2.59% | 25.97±1.28% | 33.62±2.13% | 20.2±2.9% | 38.2±0.9% | 39.4±0.9% | 40.4±2.4% | 48.3±2.0% | 53.4±1.2% | 54.8±1.6% | 54.7±2.8% | 220 °C | 
9 | COc1ccc(-c2nn3c(=O)c4c5c(sc4nc3[nH]2)CCC5)cc1 [Compound 10d, 2-(4-Methoxyphenyl)-7,8-dihydro-3H-cyclopenta[4,5]thieno[2,3-d][1,2,4]triazolo[1,5-a]pyrimidin-9(6H)-one] | 12.7±2.1% | 35.1±5.9% | 47.3±8.5% | 53.1±6.1% | 0.0±0.005% | 0.0±0.005% | 0.0±0.005% | 14.3±4.3% | 9.1±6.3% | 21.6±0.06% | 26.9±1.2% | 36.4±3.1% | 180 to 182 °C | 
10 | CC(=O)OC[C@@H](OC(C)=O)[C@@H](OC(C)=O)[C@H](OC(C)=O)[C@@H](OC(C)=O)c1nc2nc3sc4c(c3c(=O)n2[nH]1)CCC4 [Compound 12a, (1S,2R,3R,4R)-1-(9-oxo-1,7,8,9-tetrahydro-6H-cyclopenta[4,5]thieno[2,3-d][1,2,4]triazolo[1,5-a]pyrimidin-2-yl)pentane-1,2,3,4,5-pentayl pentaacetate] |  |  |  |  |  |  |  |  |  |  |  |  | > 300 °C | 
